# Reference: patent US11242343B2 (Incyte Corporation, priority 2016, dated 2022)
# Target: HPK1 (Homo sapiens, UniProt Q92918)
# Experiment: HPK1 Kinase Binding Assay
# Conditions: LanthaScreen tracer 222 binding, one hour incubation at 25° C.
# Procedure: Example A. HPK1 Kinase Binding Assay
# A stock solution of 1 mM test compound was prepared in DMSO. The compound plate was prepared by 3-fold and 11-point serial dilutions. 0.1 μL of the compound in DMSO was transferred from the compound plate to the white 384 well polystyrene plates. The assay buffer contained 50 mM HEPES, pH 7.5, 0.01% Tween-20, 5 mM MgCl2, 0.01% BSA, and 5 mM DTT. 5 μl of 4 nM active HPK1 (SignalChem M23-11G) prepared in the buffer was added to the plate. The enzyme concentration given was based on the given stock concentration reported by the vender. 5 μl of 18 nM tracer 222 (ThermoFisher PV6121) and 4 nM LanthaScreen Eu-Anti GST antibody (ThermoFisher PV5595) were added. After one hour incubation at 25° C., the plates were read on a PHERAstar FS plate reader (BMG Labtech). Ki values were determined.
# Chain of HPK1 (Q92918 whole entry, looked up): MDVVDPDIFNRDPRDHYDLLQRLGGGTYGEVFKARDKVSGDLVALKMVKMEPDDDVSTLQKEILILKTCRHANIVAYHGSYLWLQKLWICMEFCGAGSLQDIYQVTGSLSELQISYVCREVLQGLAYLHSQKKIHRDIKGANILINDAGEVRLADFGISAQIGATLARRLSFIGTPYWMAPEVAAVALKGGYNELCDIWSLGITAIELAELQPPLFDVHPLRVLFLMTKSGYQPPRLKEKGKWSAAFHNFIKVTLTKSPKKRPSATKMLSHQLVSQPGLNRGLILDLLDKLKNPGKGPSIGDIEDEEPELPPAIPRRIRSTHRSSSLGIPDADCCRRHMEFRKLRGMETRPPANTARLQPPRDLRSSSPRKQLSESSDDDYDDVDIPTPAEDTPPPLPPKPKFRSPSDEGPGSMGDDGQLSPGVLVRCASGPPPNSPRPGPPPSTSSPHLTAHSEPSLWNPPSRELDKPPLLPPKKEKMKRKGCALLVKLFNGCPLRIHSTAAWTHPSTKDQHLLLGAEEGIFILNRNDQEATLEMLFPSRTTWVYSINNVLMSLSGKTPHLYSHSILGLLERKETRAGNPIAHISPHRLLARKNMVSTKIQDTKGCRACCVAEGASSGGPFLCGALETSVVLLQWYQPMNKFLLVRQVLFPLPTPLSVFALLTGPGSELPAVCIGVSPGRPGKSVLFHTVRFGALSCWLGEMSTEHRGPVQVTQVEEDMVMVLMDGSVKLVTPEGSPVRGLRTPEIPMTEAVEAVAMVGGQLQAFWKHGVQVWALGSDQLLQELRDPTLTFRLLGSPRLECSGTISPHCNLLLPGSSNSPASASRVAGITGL
row,Compound,Ki [nM]
1,Cn1cc(-c2n[nH]c3cc(C#N)c(-c4c(F)ccc5c4CCNC5)nc23)cn1 [Example 74],≤ 100
2,"CNCc1cc(C)c(-c2nc3c(-c4ccc(N5CCN(C)CC5)nc4)n[nH]c3cc2C#N)c(F)c1 [Example 67, 5-(2-Fluoro-6-methyl-4-((methylamino)methyl)phenyl)-3-(6-(4-methylpiperazin-1-yl)pyridin-3-yl)-1H-pyrazolo[4,3-b]pyridine-6-carbonitrile]",≤ 100
3,"CNC(=O)c1ccc(-c2n[nH]c3cc(C#N)c(-c4c(C)cccc4F)nc23)cn1 [Example 65, 5-(6-Cyano-5-(2-fluoro-6-methylphenyl)-1H-pyrazolo[4,3-b]pyridin-3-yl)-N-methylpicolinamide]",≤ 100
4,CCN1CCN(c2ccc(-c3n[nH]c4cc(C#N)c(-c5c(F)ccc6c5CCNC6)nc34)cc2)CC1 [Example 75],≤ 100
5,"Cc1c(N)cccc1-c1ccc2[nH]nc(-c3ccc(N4CCN(C)CC4)cc3)c2n1 [Example 6, 2-Methyl-3-(3-(4-(4-methylpiperazin-1-yl)phenyl)-1H-pyrazolo[4,3-b]pyridin-5-yl)aniline]",≤ 100
6,CN1CCN(c2ccc(-c3n[nH]c4cc(C#N)c(-c5c(F)ccc6c5CCNC6)nc34)cn2)CC1 [Example 76],≤ 100
7,CCN1CCN(c2ccc(-c3n[nH]c4cc(C#N)c(-c5c(C)cccc5F)nc34)cc2)CC1 [Example 64],≤ 100
8,"CNCc1cc(C)c(-c2nc3c(-c4cnc(N5CCN(C)CC5)nc4)n[nH]c3cc2C#N)c(F)c1 [Example 68, 5-(2-Fluoro-6-methyl-4-((methylamino)methyl)phenyl)-3-(2-(4-methylpiperazin-1-yl)pyrimidin-5-yl)-1H-pyrazolo[4,3-b]pyridine-6-carbonitrile]",≤ 100
9,"CN1CCN(c2ccc(-c3n[nH]c4ccc(-c5cccn6ccnc56)nc34)cc2)CC1 [Example 44, 5-(Imidazo[1,2-a]pyridin-8-yl)-3-(4-(4-methylpiperazin-1-yl)phenyl)-1H-pyrazolo[4,3-b]pyridine]",≤ 100
10,CN1CCN(c2ccc(-c3n[nH]c4ccc(-c5ccccc5C#N)nc34)cc2)CC1 [Example 19],≤ 100
11,"CN1CCN(c2ccc(-c3n[nH]c4ccc(-c5cncnc5)nc34)cc2)CC1 [Example 26, 3-(4-(4-Methylpiperazin-1-yl)phenyl)-5-(pyrimidin-5-yl)-1H-pyrazolo[4,3-b]pyridine]",≤ 100
12,"CN1CCN(c2ccc(-c3n[nH]c4ccc(-c5cnc6c(c5)ncn6C)nc34)cc2)CC1 [Example 31, 5-(3-Methyl-3H-imidazo[4,5-b]pyridin-6-yl)-3-(4-(4-methylpiperazin-1-yl)phenyl)-1H-pyrazolo[4,3-b]pyridine]",≤ 100
13,"CNCc1cc(C)c(-c2nc3c(-c4ccc(C(=O)NC)nc4)n[nH]c3cc2C#N)c(F)c1 [Example 72, 5-(6-Cyano-5-(2-fluoro-6-methyl-4-((methylamino)methyl)phenyl)-1H-pyrazolo[4,3-b]pyridin-3-yl)-N-methylpicolinamide]",≤ 100
14,"CN1CCN(c2ccc(-c3n[nH]c4ccc(-c5cccc6c5CCC6NCc5ccccc5)nc34)cc2)CC1 (stereo not shown) [Example 50, N-Benzyl-4-(3-(4-(4-methylpiperazin-1-yl)phenyl)-1H-pyrazolo[4,3-b]pyridin-5-yl)-2,3-dihydro-1H-inden-1-amine]",≤ 100
15,"CN1CCN(c2ccc(-c3n[nH]c4ccc(-c5cncc6oc(C(C)(C)C)nc56)nc34)cc2)CC1 [Example 33, 2-tert-Butyl-7-(3-(4-(4-methylpiperazin-1-yl)phenyl)-1H-pyrazolo[4,3-b]pyridin-5-yl)oxazolo[5,4-c]pyridine]",≤ 100
16,"CN1CCN(c2ccc(-c3n[nH]c4ccc(-c5cccc(NS(C)(=O)=O)c5F)nc34)cc2)CC1 [Example 13, N-(2-Fluoro-3-(3-(4-(4-methylpiperazin-1-yl)phenyl)-1H-pyrazolo[4,3-b]pyridin-5-yl)phenyl)methanesulfonamide]",≤ 100
17,"Cc1cccc(F)c1-c1ccc2[nH]nc(-c3ccc(N4CCN(C)CC4)cc3)c2n1 [Example 7, 5-(2-Fluoro-6-methylphenyl)-3-(4-(4-methylpiperazin-1-yl)phenyl)-1H-pyrazolo[4,3-b]pyridine]",≤ 100

row,Compound,Ki [nM]
1,"CN1CCN(c2ccc(-c3n[nH]c4ccc(-c5cccnc5)nc34)cc2)CC1 [Example 24, 3-(4-(4-Methylpiperazin-1-yl)phenyl)-5-(pyridin-3-yl)-1H-pyrazolo[4,3-b]pyridine]",≤ 100
2,"CN1CCN(c2ccc(-c3n[nH]c4ccc(-c5cncc6ccccc56)nc34)cc2)CC1 [Example 37, 4-(3-(4-(4-Methylpiperazin-1-yl)phenyl)-1H-pyrazolo[4,3-b]pyridin-5-yl)isoquinoline]",≤ 100
3,"CN1CCN(c2ccc(-c3n[nH]c4ccc(-c5cccc(C(N)=O)c5F)nc34)cc2)CC1 [Example 40, 2-Fluoro-3-(3-(4-(4-methylpiperazin-1-yl)phenyl)-1H-pyrazolo[4,3-b]pyridin-5-yl)benzamide]",≤ 100
4,"Cc1n[nH]cc1-c1ccc2[nH]nc(-c3ccc(N4CCN(C)CC4)cc3)c2n1 [Example 34, 5-(3-Methyl-1H-pyrazol-4-yl)-3-(4-(4-methylpiperazin-1-yl)phenyl)-1H-pyrazolo[4,3-b]pyridine]",≤ 100
5,"CN1CCN(c2ccc(-c3n[nH]c4ccc(-c5ccccc5C(F)(F)F)nc34)cc2)CC1 [Example 5, 3-(4-(4-Methylpiperazin-1-yl)phenyl)-5-(2-(trifluoromethyl)phenyl)-1H-pyrazolo[4,3-b]pyridine]",≤ 100
6,"CCOC(=O)c1cccc(-c2ccc3[nH]nc(-c4ccc(N5CCN(C)CC5)cc4)c3n2)c1F [Example 12, Ethyl 2-fluoro-3-(3-(4-(4-methylpiperazin-1-yl)phenyl)-1H-pyrazolo[4,3-b]pyridin-5-yl)benzoate]",≤ 100
7,"CN1CCN(c2ccc(-c3n[nH]c4ccc(-c5cccc6c5CCC6N)nc34)cc2)CC1 (stereo not shown) [Example 47, 4-(3-(4-(4-Methylpiperazin-1-yl)phenyl)-1H-pyrazolo[4,3-b]pyridin-5-yl)-2,3-dihydro-1H-inden-1-amine]",≤ 100
8,"CN1CCN(c2ccc(-c3n[nH]c4ccc(-c5cccc(F)c5F)nc34)cc2)CC1 [Example 9, 5-(2,3-Difluorophenyl)-3-(4-(4-methylpiperazin-1-yl)phenyl)-1H-pyrazolo[4,3-b]pyridine]",≤ 100
9,"CNCc1cc(C)c(-c2nc3c(-c4ccc(C(C)(C)O)nc4)n[nH]c3cc2C#N)c(F)c1 [Example 71, 5-(2-Fluoro-6-methyl-4-((methylamino)methyl)phenyl)-3-(6-(2-hydroxypropan-2-yl)pyridin-3-yl)-1H-pyrazolo[4,3-b]pyridine-6-carbonitrile]",≤ 100
10,"CN1CCN(c2ccc(-c3n[nH]c4ccc(-c5cccc6[nH]ncc56)nc34)cc2)CC1 [Example 23, 5-(1H-Indazol-4-yl)-3-(4-(4-methylpiperazin-1-yl)phenyl)-1H-pyrazolo[4,3-b]pyridine]",≤ 100
11,"CN1CCN(c2ccc(-c3n[nH]c4ccc(-c5cccc6c5CCNC6)nc34)cc2)CC1 [Example 46, 5-(3-(4-(4-Methylpiperazin-1-yl)phenyl)-1H-pyrazolo[4,3-b]pyridin-5-yl)-1,2,3,4-tetrahydroisoquinoline]",≤ 100
12,"CN1CCN(c2ccc(-c3n[nH]c4ccc(-c5cccc(C(=O)NCc6ccncc6)c5F)nc34)cc2)CC1 [Example 43, 2-Fluoro-3-(3-(4-(4-methylpiperazin-1-yl)phenyl)-1H-pyrazolo[4,3-b]pyridin-5-yl)-N-(pyridin-4-ylmethyl)benzamide]",≤ 100
13,"CNCc1cc(F)c(-c2ccc3[nH]nc(-c4ccc(N5CCN(C)CC5)cc4)c3n2)c(F)c1 [Example 61, 1-(3,5-Difluoro-4-(3-(4-(4-methylpiperazin-1-yl)phenyl)-1H-pyrazolo[4,3-b]pyridin-5-yl)phenyl)-N-methylmethanamine]",≤ 100
14,"CNC1CCc2c(-c3ccc4[nH]nc(-c5ccc(N6CCN(C)CC6)cc5)c4n3)cccc21 (stereo not shown) [Example 48, N-Methyl-4-(3-(4-(4-methylpiperazin-1-yl)phenyl)-1H-pyrazolo[4,3-b]pyridin-5-yl)-2,3-dihydro-1H-inden-1-amine]",≤ 100
15,"CN1CCN(c2ccc(-c3n[nH]c4ccc(-c5cccc(C(=O)NCc6ccccc6)c5F)nc34)cc2)CC1 [Example 42, N-Benzyl-2-fluoro-3-(3-(4-(4-methylpiperazin-1-yl)phenyl)-1H-pyrazolo[4,3-b]pyridin-5-yl)benzamide]",≤ 100
16,"CN1CCC(NC(=O)c2ccc(-c3n[nH]c4ccc(-c5ccccc5F)nc34)cc2)CC1 [Example 55, 4-(5-(2-Fluorophenyl)-1H-pyrazolo[4,3-b]pyridin-3-yl)-N-(1-methylpiperidin-4-yl)benzamide]",≤ 100
17,"COc1cccc(F)c1-c1ccc2[nH]nc(-c3ccc(N4CCN(C)CC4)cc3)c2n1 [Example 8, 5-(2-Fluoro-6-methoxyphenyl)-3-(4-(4-methylpiperazin-1-yl)phenyl)-1H-pyrazolo[4,3-b]pyridine]",≤ 100
